Columns and labels:
Egl nine homolog 1 = Egl nine homolog 1 (Homo sapiens, UniProt Q9GZT9); assay: Binding affinity to […] PHD2 (181 to 426 residues) (unknown origin) by fluorescence polarization assay
[1] = Metabolic stability in rat liver microsomes assessed as clearance at 1 uM preincubated for 5 mins followed by NADPH addition and measured upto 60 mins by LC-MS/MS analysis; assay type: ADME, Microsome; conditions: time < 65 min, read-out: CLH

Chain of Egl nine homolog 1 (Q9GZT9 whole entry, the tested form may be a part): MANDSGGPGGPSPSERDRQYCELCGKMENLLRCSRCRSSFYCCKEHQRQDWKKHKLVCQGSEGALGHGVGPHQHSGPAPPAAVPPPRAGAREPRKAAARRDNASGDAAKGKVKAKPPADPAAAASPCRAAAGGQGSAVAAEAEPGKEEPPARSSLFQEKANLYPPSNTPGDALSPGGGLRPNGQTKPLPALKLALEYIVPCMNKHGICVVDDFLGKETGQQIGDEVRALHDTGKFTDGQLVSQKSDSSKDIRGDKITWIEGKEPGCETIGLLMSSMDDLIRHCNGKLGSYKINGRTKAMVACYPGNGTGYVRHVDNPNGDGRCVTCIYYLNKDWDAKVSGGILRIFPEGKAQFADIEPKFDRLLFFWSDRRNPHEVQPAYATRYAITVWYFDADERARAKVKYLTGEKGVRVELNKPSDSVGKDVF

Row | IC50 (Egl nine homolog 1) [nM] | microsomal CLint at 1 µM [1] [µL/min/mg] | SMILES
1 | 64.5 |  | Cc1ccc(NCC(=O)N2CCC(c3cnc(C(=O)NCC(=O)O)c(O)c3)CC2)cc1
2 | 195 |  | O=C(O)CNC(=O)c1ncc(C2CCN(C(=O)c3cccc(Cl)c3)CC2)cc1O
3 | 43.4 | 5.6 | O=C(O)CNC(=O)c1ncc(C2CCN(C(=O)CNc3ccc(C(F)(F)F)cc3)CC2)cc1O
4 | 32.5 |  | O=C(O)CNC(=O)c1ncc(C2CCN(C(=O)CNc3ccc(Cl)cc3Cl)CC2)cc1O
